Measurements reported in US9856278B2, “Lysophosphatidylserine derivative” (THE UNIVERSITY OF TOKYO, priority 2014, dated 2018).
Where a name gives a salt, the structure may show the parent alone.

What was measured:
[1] = target: T1, mouse GPR34 (Mus musculus, UniProt Q9R1K6); assay: TGFα cleavage assay, agonistic activity against GPR34; format: cell-based; details: HEK293 cells transfected with AP labeled TGFα and mouse GPR34; graded against EC50 of Reference Compound 1
T1 construct: expressed in transfected cells; host or cells: HEK293 cells, transient transfection with pCAGGS vector (LipofectAMINE 2000)
T1 sequence (Q9R1K6 whole entry): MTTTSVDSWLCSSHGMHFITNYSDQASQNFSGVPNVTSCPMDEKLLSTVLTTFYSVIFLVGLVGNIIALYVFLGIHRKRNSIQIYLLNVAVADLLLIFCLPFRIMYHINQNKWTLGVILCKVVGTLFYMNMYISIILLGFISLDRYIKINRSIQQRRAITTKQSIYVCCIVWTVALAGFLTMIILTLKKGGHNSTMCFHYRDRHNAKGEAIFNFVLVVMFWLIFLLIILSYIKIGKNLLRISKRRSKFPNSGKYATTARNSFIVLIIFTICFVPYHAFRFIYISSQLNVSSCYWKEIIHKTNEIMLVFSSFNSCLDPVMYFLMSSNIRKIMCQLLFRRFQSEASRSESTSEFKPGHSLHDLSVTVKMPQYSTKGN
Description: (§1) In a Dulbecco's modified Eagle's medium (DMEM) containing 10% bovine fetal calf serum (FCS), HEK293 cells were suspended to give a density of 2.0×10^5 cells/mL and seeded in 4 mL portions in 60 mm dishes. After 24-hr culture in the presence of 5% CO2, transfection with various expression vectors was performed using LipofectAMINE 2000 (Invitrogen). For each 60 mm dish, a plasmid vector for AP labeled TGFα was used in an amount of 1 μg and a pCAGGS plasmid vector for mouse GPR34, P2Y10 or GPR174 was also used in an amount of 1 μg. The plasmid vectors were provided by the methods disclosed in Patent Documents 2 and 5. It should be noted that the AP labeled TGFα is a protein having a human placental alkaline phosphatase fused to the N terminal of membrane-bound pro-TGFα, and a plasmid vector for the AP labeled TGFα can be prepared based on the disclosure of Tokumaru et al., J Cell Biol 151, 209-220 (2000). Twenty-four hours after transfection, cells were dissociated using trypsin/EDTA, resuspended in the culture broth to give a density of 2.0×10^4 cells/well, and seeded in a 96-well plate. In the case of stimulation with compounds, a Hank's balanced salt solution (HBSS, containing 5 mM HEPES) was used. After standing for 30 minutes, test compounds were added at varying concentrations, followed by standing for an additional one hour in the presence of 5% CO2. The 96-well plate was centrifuged (190×g, 3 min) and 80 μL of the supernatant was transferred to another 96-well plate. A reaction buffer (40 mM Tris-HCl (pH 9.5)) containing 10 mM p-nitrophenyl phosphate (p-NPP) was added in an amount of 80 μL to both the supernatant and the cells. After OD405 measurement with a microplate reader (background), heating was done at 37° C. for an hour and then another OD405 measurement was performed. For each well, the background was subtracted from the absorbance measured the second time and the result was fitted to the following formula to calculate AP activity.
Further, the values obtained by subtracting the AP activity (%) for the unstimulated group were plotted on the vertical axis to draw a graph.

[2] = target: T2, mouse GPR174 (Mus musculus, UniProt Q3U507); assay: TGFα cleavage assay, agonistic activity against GPR174; format: cell-based; details: for GPR174/LPS3 agonistic activity: HEK293 cells transfected with AP labeled TGFα and mouse GPR174, graded against EC50 of Reference Compound 1; for EC50: HEK293 cells, mouse GPR174, AP-TGFα release, value in parentheses, read-out: GPR174/LPS3 EC50
T2 construct: expressed in transfected cells; host or cells: HEK293 cells, transient transfection with pCAGGS vector (LipofectAMINE 2000)
T2 sequence (Q3U507 whole entry): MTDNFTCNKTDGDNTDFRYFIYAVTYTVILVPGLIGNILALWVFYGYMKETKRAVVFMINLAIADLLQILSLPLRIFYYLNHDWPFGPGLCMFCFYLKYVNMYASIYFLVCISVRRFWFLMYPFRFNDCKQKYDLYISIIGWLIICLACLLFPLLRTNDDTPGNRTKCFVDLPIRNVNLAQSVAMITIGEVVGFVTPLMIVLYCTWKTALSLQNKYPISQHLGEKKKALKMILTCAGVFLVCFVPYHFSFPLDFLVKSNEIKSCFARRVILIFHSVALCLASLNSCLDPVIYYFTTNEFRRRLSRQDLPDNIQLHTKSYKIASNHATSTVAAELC
Description: as §1
(§2) Further, the values obtained by subtracting the AP activity (%) for the unstimulated group were plotted on the vertical axis to draw a graph. […] The EC50 values of the respective compounds are also cited in parentheses.

[3] = target: T3, mouse P2Y10 (Mus musculus, UniProt Q8BFU7); assay: TGFα cleavage assay, agonistic activity against P2Y10; format: cell-based; details: for P2Y10/LPS2 agonistic activity: HEK293 cells transfected with AP labeled TGFα and mouse P2Y10, graded against EC50 of Reference Compound 1; for EC50: HEK293 cells, mouse P2Y10, AP-TGFα release, value in parentheses, read-out: P2Y10/LPS2 EC50; for selectivity for P2Y10: against GPR34 and GPR174, from Table 3
T3 construct: expressed in transfected cells; host or cells: HEK293 cells, transient transfection with pCAGGS vector (LipofectAMINE 2000)
T3 sequence (Q8BFU7 whole entry): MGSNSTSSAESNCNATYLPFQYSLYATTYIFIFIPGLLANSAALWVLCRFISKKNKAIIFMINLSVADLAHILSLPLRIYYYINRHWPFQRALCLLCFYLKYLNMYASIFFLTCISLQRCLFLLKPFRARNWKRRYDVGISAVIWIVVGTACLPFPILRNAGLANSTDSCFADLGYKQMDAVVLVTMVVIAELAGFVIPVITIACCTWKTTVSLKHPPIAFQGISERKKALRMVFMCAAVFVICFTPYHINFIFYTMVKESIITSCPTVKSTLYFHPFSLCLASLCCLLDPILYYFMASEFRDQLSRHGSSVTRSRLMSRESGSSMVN
Description: as §1, §2

SMILES | melting point [°C] | GPR34/LPS1 agonistic activity [1] | GPR174/LPS3 agonistic activity [2] | EC50 [2] [nM] | P2Y10/LPS2 agonistic activity [3] | EC50 [3] [nM] | selectivity for P2Y10 [3]
CCCCCCCC/C=C\CCCCCCCC(=O)OC[C@@H](O)COP(=O)(O)OC[C@H](N)C(=O)O [compound 1, reference compound] |  | +++ | +++ | 81 | +++ | 8.3 | 
CCCCCCCCCCCOc1ccccc1CCC(=O)Oc1cccc(OP(=O)(O)OC[C@H](N)C(=O)O)c1 (as salt: salt) [Example 2, O-(hydroxy(3-((3-(2-(undecyloxy)phenyl)propanoyl)oxy)phenoxy)phosphoryl)-L-serine] | 123 to 126.5 |  |  |  |  |  | 
CCCCCCCCCCCOc1ccccc1CCC(=O)OCC#CCOP(=O)(O)OC[C@H](N)C(=O)O [Example 12, O-(hydroxy((4-((3-(2-(undecyloxy)phenyl)propanoyl)oxy)but-2-yn-1-yl)oxy)phosphoryl)-L-serine] |  | − | + |  | ++++~+++++ | 1.5 | agonists having selectivity for P2Y10
CCCCCCCCCCCOc1ccccc1CCC(=O)OCc1cccc(OP(=O)(O)OC[C@H](N)C(=O)O)c1 [Example 6, O-(hydroxy(3-(((3-(2-(undecyloxy)phenyl)propanoyl)oxy)methyl)phenoxy)phosphoryl)-L-serine] |  | −~++ | +~++ |  | ++++ | 3.3 | agonists having selectivity for P2Y10
CCCCCCCCCCCOc1ccccc1CCC(=O)Oc1ccc(OP(=O)(O)OC[C@H](N)C(=O)O)cc1 [Example 3, O-(hydroxy(4-((3-(2-(undecyloxy)phenyl)propanoyl)oxy)phenoxy)phosphoryl)-L-serine] |  | − | +~++ | 340 | +++~++++ | 7 | agonists having selectivity for P2Y10
CCCCCCCCCCCOc1ccccc1CCC(=O)Oc1cccc(COP(=O)(O)OC[C@H](N)C(=O)O)c1 [Example 9, O-(hydroxy((3-((3-(2-(undecyloxy)phenyl)propanoyl)oxy)benzyl)oxy)phosphoryl)-L-serine] |  | − | − |  | +++ | 30 | agonists having selectivity for P2Y10
N[C@@H](COP(=O)(O)Oc1cccc(COC(=O)CCc2ccccc2OCc2cccc(Oc3ccccc3)c2)c1)C(=O)O [Example 7, O-(hydroxy(3-(((3-(2-((3-phenoxybenzyl)oxy)phenyl)propanoyl)oxy)methyl)phenoxy)phosphoryl)-L-serine] |  | − | −~+ |  | ++~+++ | 31 | agonists having selectivity for P2Y10
CCCCCCCCCCCOc1ccccc1CCC(=O)Oc1ccc(OP(=O)(O)OC[C@H](N)C(=O)O)cc1 (as salt: salt) [Example 3, O-(hydroxy(4-((3-(2-(undecyloxy)phenyl)propanoyl)oxy)phenoxy)phosphoryl)-L-serine] | 140.5 to 142 |  |  |  |  |  | 
CCCCCCCCCCCOc1ccccc1CCC(=O)OCc1ccccc1OP(=O)(O)OC[C@H](N)C(=O)O [Example 4, O-(hydroxy(2-(((3-(2-(undecyloxy)phenyl)propanoyl)oxy)methyl)phenoxy)phosphoryl)-L-serine] |  | +++ | + |  | ++ |  | 
N[C@@H](COP(=O)(O)OCc1cccc(OC(=O)CCc2ccccc2OCc2cccc(Oc3ccccc3)c2)c1)C(=O)O [Example 10, O-(hydroxy((3-((3-(2-((3-phenoxybenzyl)oxy)phenyl)propanoyl)oxy)benzyl)oxy)phosphoryl)-L-serine] |  | −~+ | +~++ |  | ++ |  | 
CCCCCCCCCCCOc1ccccc1CCC(=O)OCc1ccc(OP(=O)(O)OC[C@H](N)C(=O)O)cc1 (as salt: TFA) | 184 to 193 |  |  |  |  |  | 
CCCCCCCCCCCOc1ccccc1CCC(=O)Oc1cccc(OP(=O)(O)OC[C@H](N)C(=O)O)c1 [Example 2, O-(hydroxy(3-((3-(2-(undecyloxy)phenyl)propanoyl)oxy)phenoxy)phosphoryl)-L-serine] |  | − | − |  | +++~++++ | 14 | agonists having selectivity for P2Y10
N[C@@H](COP(=O)(O)Oc1cccc(COC(=O)CCc2ccccc2OCc2cccc(Oc3ccccc3)c2)c1)C(=O)O (as salt: TFA) [Example 7, O-(hydroxy(3-(((3-(2-((3-phenoxybenzyl)oxy)phenyl)propanoyl)oxy)methyl)phenoxy)phosphoryl)-L-serine] | 175 to 185 |  |  |  |  |  | 

Further lines, with some results ahead:

melting point [°C] | SMILES | GPR34/LPS1 agonistic activity [1] | GPR174/LPS3 agonistic activity [2] | EC50 [2] [nM] | P2Y10/LPS2 agonistic activity [3] | EC50 [3] [nM] | selectivity for P2Y10 [3]
87.8 to 88.8 | O=C(O)CCc1ccccc1OCc1cccc(-c2ccccc2)c1 [Example 47, 3-(2-([1,1′-biphenyl]-3-ylmethoxy)phenyl)propanoic acid] |  |  |  |  |  | 
104.5 to 106 | Cc1ccc(Oc2cccc(COc3ccccc3CCC(=O)O)c2)cc1 [Example 33, 3-(2-((3-(p-tolyloxy)benzyl)oxy)phenyl)propanoic acid] |  |  |  |  |  | 
111.1 to 112.5 | CC(C)(C)c1ccc(Oc2cccc(COc3ccccc3CCC(=O)O)c2)cc1 [Example 42, 3-(2-((3-(4-(tert-butyl)phenoxy)benzyl)oxy)phenyl)propanoic acid] |  |  |  |  |  | 
117.5 to 120 | Cc1cccc(C)c1-c1cccc(COc2ccccc2CCC(=O)O)c1 [Example 36, 3-(2-((2′,6′-dimethyl[1,1′-biphenyl]-3-yl)methoxy)phenyl)propanoic acid] |  |  |  |  |  | 
90 to 91 | O=C(O)CCc1cccc(OCc2cccc(-c3ccccc3)c2)c1 [Example 48, 3-(3-([1,1′-biphenyl]-3-ylmethoxy)phenyl)propanoic acid] |  |  |  |  |  | 
